Data on 25 compounds can be found in ChEMBL document CHEMBL2385058, “Progress and developments in tau aggregation inhibitors for Alzheimer disease” (J Med Chem, 2013).

Structures are written as SMILES. Bounds are passed on as bounds.

Data set [1] is described as follows: Inhibition of tau K19 (unknown origin) aggregation assessed as inhibition of paired helical filament formation after 10 days by thioflavin S fluorescence assay in presence of heparin. Further details: species or system Homo sapiens.
Data set [2] is filed under the species Homo sapiens. Briefly: Induction of tau K19 (unknown origin) disaggregation assessed as decrease in paired helical filament formation measured disassembly-inducing half maxima after 10 days by thioflavin S fluorescence assay in presence of heparin.
Data set [3] can be described thus: Tmax in amyotrophic lateral sclerosis patient. The note with it: human, in vivo.
In data set [4] the target is T1, Microtubule-associated protein tau (Homo sapiens, UniProt P10636). Briefly: Inhibition of tau protein aggregation (unknown origin).
The nature of data set [5]: Inhibition of […] human tau K18 aggregation.
A short description of data set [6]: Inhibition of tau K19 aggregation (unknown origin). Further details: species or system Homo sapiens.
Data set [7] is described as follows: Inhibition of full length human tau40 aggregation.
The target in data set [8] is T1, Microtubule-associated protein tau. Briefly: Inhibition of human recombinant brain tau protein (412 amino acid residues) filament assembly expressed in Escherichia coli BL21(DE3) by electron microscopic analysis in presence of heparin.
The species entered for data set [9] is Homo sapiens. As to the kind of experiment: Selectivity ratio of IC50 for full length human tau40 aggregation to IC50 for tau K19 aggregation (unknown origin).
Data set [10] is described as follows: Inhibition of K18 P301L mutant (unknown origin) fibril formation after 1 hr by thioflavin T fluorescence assay. Further details: species or system Homo sapiens.
Data set [11] in a line: Terminal half life in rat at 100 mg, iv. The data set is classed as ADME, organism-based. The note with it: in vivo, read-out: beta t1/2 (converted).
Data set [12] has as its target T1, Microtubule-associated protein tau. Briefly: Inhibition of tau protein aggregation (unknown origin) at 5:1 compound to protein concentration by Western blot analysis.
Data set [13] can be described thus: Inhibition of tau K18 aggregation in mouse N2A cells. The data set is classed as cell-based.
The target of data set [14] is Amyloid-beta precursor protein (Homo sapiens, UniProt P05067). As to the kind of experiment: Inhibition of amyloid beta (1 to 40) (unknown origin) fibril formation after 18 hrs by DELFIA.
Data set [15] has as its system N2a. Briefly: Inhibition of tau K18 deltaK280 mutant aggregation in mouse N2A cells at 10 uM measured over 5 days by thioflavin S fluorescence assay relative to control. It is filed as cell-based.
For data set [16], the system named is N2a. As to the kind of experiment: Cytotoxicity against mouse N2A cells at 10 uM after 24 hrs by LDH assay relative to control. It is filed as cell-based.
Data set [17] in a line: Inhibition of tau K19 protein (unknown origin) aggregation by thioflavin S fluorescence assay. Further details: species or system Homo sapiens.
The species entered for data set [18] is Homo sapiens. Briefly: Induction of tau K19 (unknown origin) disaggregation assessed as decrease in paired helical filament formation measured disassembly-inducing half maxima by thioflavin S fluorescence assay.
Data set [19] is described as follows: Oral bioavailability in diabetic neuropathy patient at 150 mg/day. The data set is classed as ADME, organism-based. As to conditions: human, in vivo.
In data set [20] the target is T1, Microtubule-associated protein tau. As to the kind of experiment: Induction of tau protein (unknown origin) disaggregation assessed as disassembly-inducing half maxima.
Data set [21] is filed under the species Homo sapiens. As to the kind of experiment: Induction of tau K19 (unknown origin) disaggregation assessed as disassembly-inducing half maxima.
Data set [22] in a line: Binding affinity to tau K19 (unknown origin) assessed as dissociation constant by STD-NMR analysis. Further details: species or system Homo sapiens.

T1 sequence (P10636 whole entry): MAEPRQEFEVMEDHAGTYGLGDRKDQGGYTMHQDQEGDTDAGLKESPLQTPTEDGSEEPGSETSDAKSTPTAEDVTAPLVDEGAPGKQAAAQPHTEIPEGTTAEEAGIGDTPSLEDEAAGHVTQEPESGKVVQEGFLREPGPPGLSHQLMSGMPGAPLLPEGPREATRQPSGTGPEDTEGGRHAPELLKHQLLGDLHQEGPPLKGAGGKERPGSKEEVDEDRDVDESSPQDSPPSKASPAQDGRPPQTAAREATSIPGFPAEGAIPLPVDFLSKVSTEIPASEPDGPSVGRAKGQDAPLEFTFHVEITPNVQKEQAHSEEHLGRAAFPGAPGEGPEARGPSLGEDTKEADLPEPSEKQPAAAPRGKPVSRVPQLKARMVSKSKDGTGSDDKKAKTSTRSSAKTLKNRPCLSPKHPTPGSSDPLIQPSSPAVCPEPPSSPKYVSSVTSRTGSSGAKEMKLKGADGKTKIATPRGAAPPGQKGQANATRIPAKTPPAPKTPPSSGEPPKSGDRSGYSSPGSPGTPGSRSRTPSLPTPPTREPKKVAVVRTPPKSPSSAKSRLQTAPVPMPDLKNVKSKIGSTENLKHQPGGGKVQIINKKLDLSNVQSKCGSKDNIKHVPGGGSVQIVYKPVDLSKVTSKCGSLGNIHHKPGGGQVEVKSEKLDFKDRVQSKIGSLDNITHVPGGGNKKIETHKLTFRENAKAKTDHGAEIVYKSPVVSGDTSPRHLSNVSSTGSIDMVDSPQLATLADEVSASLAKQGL
Amyloid-beta precursor protein, sequence (P05067 whole entry): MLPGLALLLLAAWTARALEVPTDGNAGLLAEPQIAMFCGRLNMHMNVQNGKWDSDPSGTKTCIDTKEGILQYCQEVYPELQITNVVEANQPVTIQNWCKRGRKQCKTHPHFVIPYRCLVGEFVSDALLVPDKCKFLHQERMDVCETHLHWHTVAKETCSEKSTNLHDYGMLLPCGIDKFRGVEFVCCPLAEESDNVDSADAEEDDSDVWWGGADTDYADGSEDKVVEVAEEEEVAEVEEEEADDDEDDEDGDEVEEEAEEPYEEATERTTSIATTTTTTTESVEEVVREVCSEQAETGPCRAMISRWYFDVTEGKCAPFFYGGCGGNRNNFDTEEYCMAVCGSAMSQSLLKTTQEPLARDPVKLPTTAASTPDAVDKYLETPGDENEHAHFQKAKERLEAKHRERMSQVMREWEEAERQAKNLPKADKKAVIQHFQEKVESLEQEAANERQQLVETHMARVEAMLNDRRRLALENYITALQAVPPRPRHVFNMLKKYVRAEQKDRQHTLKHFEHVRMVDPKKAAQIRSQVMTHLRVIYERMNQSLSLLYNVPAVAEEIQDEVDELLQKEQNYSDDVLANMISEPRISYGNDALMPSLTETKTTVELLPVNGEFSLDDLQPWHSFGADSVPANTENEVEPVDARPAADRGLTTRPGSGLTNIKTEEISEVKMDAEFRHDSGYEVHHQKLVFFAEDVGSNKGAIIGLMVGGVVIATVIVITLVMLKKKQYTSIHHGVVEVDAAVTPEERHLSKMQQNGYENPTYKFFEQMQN

For `Cc1cc(O)c2c(c1)C(=O)c1cc(O)cc(O)c1C2=O` [EMODIN], in data set [1], the concentration for half-maximal inhibition (IC50) came out at 1100 nM. Further, in data set [2], the Activity turned out to be 2.2 µM.

Consider `Nc1nc2ccc(OC(F)(F)F)cc2s1` [RILUZOLE], for which the Tmax in data set [3] was found to be 2 h. Turning to `CCC(/C=C1\Sc2ccc(OC)cc2N1CCO)=C\c1sc2ccc(OC)cc2[n+]1CCO`, the IC50 in [4] stood at 380 nM; in [5] it was 300 nM. On to `O=C(O[C@@H]1Cc2c(O)cc(O)cc2O[C@@H]1c1cc(O)c(O)c(O)c1)c1cc(O)c(O)c(O)c1` [EPIGALOCATECHIN GALLATE], for which the IC50 was 3900 nM in [6], over 200000 nM in data set [7] and 1800 nM in data set [8]. For the same compound, the Ratio IC50 in data set [9] was over 50. As for `Oc1cc(O)c2c(c1)O[C@H](c1ccc(O)c(O)c1)[C@H](O)C2` [(-)-EPICATECHIN], in data set [8], the IC50 is at least 200000 nM. Turning to `CCOC(=O)c1nn(-c2ccc(OC)cc2)c(=O)c2c(N)scc12`, half-maximal inhibition in [10] (IC50) was put at 5100 nM. Consider `CN(C)c1ccc2nc3ccc(N(C)C)cc3[s+]c2c1.[Cl-]` [METHYLENE BLUE ANHYDROUS], for which the half-life in data set [11] is 5 h. `Nc1ccc2nc3ccc(N)cc3[s+]c2c1`: in data set [12], the IC50 is 69 nM. `O=C(O)COc1ccc(Nc2c([N+](=O)[O-])cc([N+](=O)[O-])c3cccnc23)cc1` gave an IC50 in [13] of under 15000 nM. `O=C1c2ccc(O)c(O)c2C(=O)c2c(O)ccc(O)c21` [QUINALIZARIN]: the half-inhibitory concentration (IC50) in data set [1] was found to be 1100 nM. Also, in data set [2], the Activity came to 2.2 µM. In the case of `COc1cccc2c1C(=O)c1c(O)c3c(c(O)c1C2=O)C[C@@](O)(C(C)=O)C[C@@H]3O[C@H]1C[C@H](N)[C@H](O)[C@H](C)O1` [DAUNORUBICIN], the IC50 in data set [1] was 1100 nM. The Activity in data set [2] turned out to be 2.2 µM. As for `COc1ccccc1OCCNCC(O)COc1cccc2[nH]c3ccccc3c12` (configuration not stated) [CARVEDILOL], 30000 nM corresponded to half-maximal inhibition in data set [14] (IC50). On to `Cc1cc2nc3ccc(N(C)C)cc3[s+]c2cc1N` [TOLONIUM CHLORIDE], for which the IC50 in data set [12] worked out at 69 nM. As to `O=C(c1ccccc1)c1ccc(O)c(O)c1O`, in [1], the IC50 came to 1100 nM. The Activity in data set [2] was determined as 2.2 µM. `Cc1nc(Nc2ccccc2C(=O)O)nc(Nc2ccccc2C(=O)O)c1[N+](=O)[O-]` returned an inhibition in [15] of 70%. Besides, the IC50 in [13] was under 10000 nM.

Turning to `COc1cccc2c1C(=O)c1c(O)c3c(c(O)c1C2=O)C[C@@](O)(C(=O)CO)C[C@@H]3O[C@H]1C[C@H](N)[C@H](O)[C@H](C)O1`, the Activity in data set [2] came out at 2.2 µM.

Turning to `C1=C2\Sc3ccccc3N2CCCCC[n+]2c(sc3ccccc32)/C=C/C=C2\Sc3ccccc3N2CCCCC[n+]2c(sc3ccccc32)/C=C/1`, half-maximal inhibition in data set [4] (IC50) was put at 80 nM. `O=C1/C(=C/c2ccc(-c3cccc(Cl)c3)o2)SC(=S)N1Cc1nc2ccccc2[nH]1`: the Activity was 2% in data set [16] and 0.94 µM in data set [18]. In data set [17], this compound came in with a half-maximal inhibitory concentration (IC50) of 670 nM.

`CC(/C=C1\SC(=S)N(CC(=O)O)C1=O)=C\c1ccccc1` displayed a bioavailability in data set [19] of 100%. As to `CN(C)c1ccc2nc3ccc(N)cc3[s+]c2c1`, the IC50 in data set [12] stood at 69 nM; in data set [8], 2600 nM. In turn, `O=C(O)CCN1C(=O)/C(=C/c2ccc(-c3cccc(Cl)c3)o2)SC1=S` returned an IC50 in [17] of 470 nM. Moreover, in data set [18], the Activity is 0.3 µM. For `O=C(O)CCN1C(=O)/C(=C/c2ccc(-c3cccc(Cl)c3)s2)SC1=S`, in data set [17], the half-inhibitory concentration (IC50) came to 970 nM. Also, the Activity in data set [18] was 0.77 µM.

Compound `CCOC(=O)c1nn(-c2ccccc2)c(=O)c2c(N)scc12` gave an IC50 in data set [10] of 6300 nM. `Cc1ccc(C(=O)N/N=C/c2ccc(O)c(O)c2O)cc1`: in [4], the half-inhibitory concentration (IC50) came to 970 nM. Besides, the Activity in data set [20] was 1.1 µM.

On to `O=C(NNc1nc(-c2ccc([N+](=O)[O-])cc2)cs1)c1ccc2[nH]cnc2c1`, for which the Activity in data set [21] amounted to 0.7 µM. In addition, in [6], inhibition was half-maximal at 1600 nM (IC50). Further, the Kd in data set [22] is 62000 nM.
